# Test results taken from patent publication US20260216354A1, “ANTI-CMET ANTIBODY, ANTIBODY-DRUG CONJUGATE, AND PREPARATION METHOD THEREFOR AND USE THEREOF” (MEDILINK THERAPEUTICS (SUZHOU) CO., LTD., priority 2022, published 2026).
# How the values were obtained:
# [1] = tested on: NCI-H716 cells; experiment: Flow cell affinity of ADCs, NCI-H716; assay type: binding, human; conditions: flow cytometry
# [2] = tested on: NCI-H716 cells; experiment: In-vitro killing activity Test 1 (CCK8), NCI-H716; assay type: cell-based, human; conditions: 7 days, read-out: EC50 of ADC killing (nM) NCI-H716
# Excerpt: (§1) Tumor cells in a good growth status are collected by digestion and centrifugation, SW480 (purchased from ATCC, Cat. No. CCL-228), NCI-H358 (purchased from ATCC, Cat. No. CRL-5807), LS1034 cells (Nanjing Cobioer Biosciences Co., Ltd., Cat. No. CBP60013), NCI-H716 (purchased from ATCC, Cat. No. CCL-251) cells are directly collected by centrifugation, the foregoing cells are all resuspended with RPMI 1640+5% FBS+Ps, and are counted, and 5000 (LS1034 and NCI-H716) or 3000 (SW480 and NCI-H358) cells are plated in each well in a volume of 100 uL; ADCs to be tested are diluted separately with resuspension media corresponding to the foregoing 3 types of cells, starting at 300 µg/mL ([…]) for 3-fold dilution with 11 concentration points, and added into a plate with 100 µL/well, to make the ADCs have a final concentration of 150 µg/mL, for incubation at 37° C. for 5 days (LS1034 and NCI-H358) or 7 days (NCI-H716 and SW480); after the incubation is completed, CCK8 is added with 20 µL/well, for a reaction for 1-3 hours; and values are read out at 450 nm by a microplate reader and imported into Graphpad Prism for curve-fitting.
# [3] = tested on: SW480 cells; experiment: In-vitro killing activity Test 1 (CCK8), SW480; assay type: cell-based, human; conditions: 7 days, read-out: EC50 of ADC killing (nM) SW480
# Excerpt: as §1
# [4] = tested on: human colon cancer SW480 cell lines; experiment: In-vivo efficacy in SW480 CDX models; design: species or system mouse; conditions: 5 mg/kg, i.v., QW*2, SW480 CDX
# Excerpt: (§2) To verify the in-vivo efficacy of the anti-human cMet ADC drugs and evaluate the anti-tumor effects of the tested drugs in female Balb/c Nude mouse models subjected to subcutaneous xenografts, 5-6 week old female Balb/c Nude mice (Vital River) are purchased, human non-small cell lung cancer NCI-H358 cells that have grown to the logarithmic growth phase are digested with EDTA and then resuspended with PBS, each mouse is subcutaneously inoculated with 5*10^6 cells, and when the tumor grows to a size of […], intravenous administration is performed once a week with 1 mg/kg or 3 mg/kg each time.
# A similar method is used to evaluate the anti-tumor effects of anti-cMet ADC test drugs in female BALB/c nude mouse animal models subjected to subcutaneous xenografts of human colon cancer SW480 cell lines.
# [5] = tested on: human colorectal adenocarcinoma NCI-H716 cell lines; experiment: In-vivo efficacy in NCI-H716 CDX models; design: species or system mouse; conditions: i.v., QW*3, NCI-H716 CDX
# Excerpt: as §2
# A similar method is used to evaluate the anti-tumor effects of cMet ADC test drugs in female BALB/c nude mouse animal models subjected to subcutaneous xenografts of human colorectal adenocarcinoma NCI-H716 cell lines.
# [6] = biological target: T1, h.cMet-ECD-His (Homo sapiens, UniProt P08581); experiment: ELISA protein affinity of cMET antibodies before and after conjugating into ADCs; assay type: binding
# T1 construct: a human cMet ectodomain recombinant protein (Human HGF R/c-MET Protein, His Tag); purchased Acrobiosystems Co., Ltd. / ACRO Biosystems MET-H5227
# Method: Proteins anti-His-Rabbit Fc are coated with the CBS to […], and are blocked with 2% BSA (in PBS) at 37° C. for 2 hours, h.cMet-ECD-His of […] is added for incubation at 37° C. for 2 hours, after 2 hours, antibodies to be tested or ADCs that are gradiently diluted (starting at […] for 3-fold dilution with 11 concentration points) are added for incubation at 37° C. for 2 hours, after 2 hours, HRP-labeled anti-human specific secondary antibodies (Jackson, 115-035-164) are added for incubation at 37° C. for 1 hour, a TMB substrate is added for color development, and after the color development is stopped using HCl of 2M, final products are added into a machine to read out absorbance values at […].
# [7] = tested on: NCI-H358 cells; experiment: Flow cell affinity of ADCs, NCI-H358; assay type: binding, human; conditions: flow cytometry
# [8] = tested on: NCI-H69 cells; experiment: Flow cell affinity of ADCs, NCI-H69; assay type: binding, human; conditions: flow cytometry
# [9] = tested on: LS1034 cells; experiment: Flow cell affinity of ADCs, LS1034; assay type: binding, human; conditions: flow cytometry
# [10] = tested on: LS1034 cells; experiment: In-vitro killing activity Test 1 (CCK8), LS1034; assay type: cell-based, human; conditions: 5 days, read-out: EC50 of ADC killing (nM) LS1034
# Excerpt: as §1
# [11] = tested on: NCI-H358 cells; experiment: In-vitro killing activity Test 1 (CCK8), NCI-H358; assay type: cell-based, human; conditions: 5 days, read-out: EC50 of ADC killing (nM) NCI-H358
# Excerpt: as §1
# [12] = tested on: human non-small cell lung cancer NCI-H358 cells; experiment: In-vivo efficacy in NCI-H358 CDX models (Test 1); design: species or system mouse; conditions: 1 mg/kg, i.v., QW*3, NCI-H358 CDX
# Excerpt: as §2
# [13] = biological target: T2, h.cMet (cMet-ECD-his) (Homo sapiens, UniProt P08581); experiment: ELISA affinity of humanized antibodies to human cMet; assay type: binding; conditions: cMet-ECD-his coated
# T2 construct: a human cMet ectodomain recombinant protein (Human HGF R/c-MET Protein, His Tag); purchased Acrobiosystems Co., Ltd. / ACRO Biosystems MET-H5227
# Excerpt: […]
# [14] = tested on: cynoMet (cyno.cMet-ECD-His); experiment: ELISA affinity of humanized antibodies to cyno Met; assay type: binding; conditions: cyno.cMet-ECD-His captured
# Excerpt: […]
# [15] = tested on: MKN45 cells; experiment: Flow affinity of humanized antibodies to MKN45 cells; assay type: binding, human; conditions: flow cytometry
# Method: MKN45 cells (Nanjing Cobioer Biosciences Co., Ltd., CBP60488) are collected by trypsin digestion and centrifugation, and are washed three times with a pre-cooled PBS, the cells are resuspended with 1% BSA (in the PBS), and are plated into a 96-well conical bottom plate with 2^10^5 cells (50 ul) per well, anti-cMet humanized antibodies to be tested are gradiently diluted with 1% BSA starting at 20 μg/ml with a 4-fold dilution gradient and 8 concentration points, 50 ul diluted antibodies are mixed well with the cells in the conical bottom plate for incubation at 4° C. for 1 hour, after three times of washing with the pre-cooled PBS, 100 ul of 1% BSA (containing 1 uL anti-human APC fluorescent secondary antibodies, BioLegend, Cat. No. 410712) is added to each well for incubation at 4° C. for 0.5 hours, and after three times of washing with the pre-cooled PBS, the cells are resuspended for detection by a flow cytometer (Beckman, cytoflex).
# [16] = biological target: T1, h.cMet-ECD-His; experiment: ForteBio dynamic affinity to h.cMet-ECD-His; assay type: binding; conditions: ProA sensor
# Method: Dynamic affinities of the humanized antibodies are assayed through ForteBio. Experimental steps are as follows: 1. sensor preparation: taking out a ProA sensor, and pre-wetting the sensor with a PBST diluent (pH 7.4) for 10 min; 2. sample dilution: separately diluting antibodies that need to be solidified to 5 μg/ml, antigens h.cMet-ECD-His (Acrobiosystems Co., Ltd., Cat. No.: MET-H5227) starting at 500 nM for 2-fold dilution with 5 concentration points and a 0 concentration point set; 3. setting a program, putting a sensor plate and a sample plate away, starting the program, and the sensor being regenerated with a glycine solution of 20 mM (pH 1.7); 4. using Octet analysis software to analyse data.
# [17] = tested on: MKN45 cells; experiment: Endocytic activity on MKN45 cells; assay type: cell-based, human; conditions: 10 μg/mL, 37° C.
# Method: MKN45 cells are collected by trypsin digestion and centrifugation, incubated with humanized antibodies to be detected of a concentration of 10 μg/mL at 4° C. for 1 hour, and washed 3 times with the PBS, the cells are resuspended with DMEM+10% FBS that has been pre-warmed at 37° C., […], after 3 times of washing with a pre-cooled PBS, 1.2 uL of anti-human APC fluorescent secondary antibodies are added for incubation at 4° C. for 0.5 hours, and after three times of washing with the PBS, the cells are resuspended and added into a machine. Endocytosis rates are calculated according to the following formula: endocytosis rate (%)= ? 1−(an average fluorescence value of a test sample at this time point−an average fluorescence value of a negative control sample at this time point)/(an average fluorescence value of the test sample at 0 hour−an average fluorescence value of the negative control sample at 0 hour) ? * 100.
# [18] = biological target: T3, (Homo sapiens, UniProt P08581); experiment: FACS competition of humanized antibodies with HGF ligand on MKN45 cells; assay type: binding; conditions: HGF-His-biotin 50 ng/ml
# T3 construct: MKN45 cells expressing c-MET antigens; endogenous in cells; host or cells: MKN45
# Method: (§3) Therefore, competitive actions of the humanized antibodies on ligand binding and actions of inhibiting HGF-induced ERK phosphorylation are detected.
# (§4) MKN45 cells are collected by trypsin digestion and centrifugation, and are washed three times with a pre-cooled PBS, the cells are resuspended with 1% BSA (in PBS), and are plated into a 96-well conical bottom plate with 2^10^5 cells (50 ul) per well, anti-cMet humanized antibodies are gradiently diluted with 1% BSA, starting at 15 μg/ml to a final concentration from 5 μg/ml with a 3-fold dilution gradient and 8 dilution points, 50 ul diluted antibodies are mixed well with the cells in the conical bottom plate, HGF-His-biotin (from Chengdu NB Biolab Co., Ltd.) is diluted with 1% BSA to 150 ng/ml, and is added into the well plate with 50 ul/well, to make a final concentration of ligands of 50 ng/ml, for incubation at 4° C. for 1 hour after fully mixing, after three times of washing with the pre-cooled PBS, 100 ul of 1% BSA (containing 1 uL anti-biotin PE fluorescent secondary antibodies, BioLegend, Cat. No. 405204) is added to each well for incubation at 4° C. for 0.5 hours, and after three times of washing with the pre-cooled PBS, the cells are resuspended and detected by a flow cytometer (Beckman, cytoflex).
# [19] = biological target: T4, HGF ligand on MKN45 cells (Homo sapiens, UniProt P08581); experiment: as above; assay type: binding; conditions: HGF-His-biotin 50 ng/ml, MKN45
# T4 construct: MKN45 cells expressing c-MET antigens; endogenous in cells; host or cells: MKN45
# T4 sequence (P08581 25-1390): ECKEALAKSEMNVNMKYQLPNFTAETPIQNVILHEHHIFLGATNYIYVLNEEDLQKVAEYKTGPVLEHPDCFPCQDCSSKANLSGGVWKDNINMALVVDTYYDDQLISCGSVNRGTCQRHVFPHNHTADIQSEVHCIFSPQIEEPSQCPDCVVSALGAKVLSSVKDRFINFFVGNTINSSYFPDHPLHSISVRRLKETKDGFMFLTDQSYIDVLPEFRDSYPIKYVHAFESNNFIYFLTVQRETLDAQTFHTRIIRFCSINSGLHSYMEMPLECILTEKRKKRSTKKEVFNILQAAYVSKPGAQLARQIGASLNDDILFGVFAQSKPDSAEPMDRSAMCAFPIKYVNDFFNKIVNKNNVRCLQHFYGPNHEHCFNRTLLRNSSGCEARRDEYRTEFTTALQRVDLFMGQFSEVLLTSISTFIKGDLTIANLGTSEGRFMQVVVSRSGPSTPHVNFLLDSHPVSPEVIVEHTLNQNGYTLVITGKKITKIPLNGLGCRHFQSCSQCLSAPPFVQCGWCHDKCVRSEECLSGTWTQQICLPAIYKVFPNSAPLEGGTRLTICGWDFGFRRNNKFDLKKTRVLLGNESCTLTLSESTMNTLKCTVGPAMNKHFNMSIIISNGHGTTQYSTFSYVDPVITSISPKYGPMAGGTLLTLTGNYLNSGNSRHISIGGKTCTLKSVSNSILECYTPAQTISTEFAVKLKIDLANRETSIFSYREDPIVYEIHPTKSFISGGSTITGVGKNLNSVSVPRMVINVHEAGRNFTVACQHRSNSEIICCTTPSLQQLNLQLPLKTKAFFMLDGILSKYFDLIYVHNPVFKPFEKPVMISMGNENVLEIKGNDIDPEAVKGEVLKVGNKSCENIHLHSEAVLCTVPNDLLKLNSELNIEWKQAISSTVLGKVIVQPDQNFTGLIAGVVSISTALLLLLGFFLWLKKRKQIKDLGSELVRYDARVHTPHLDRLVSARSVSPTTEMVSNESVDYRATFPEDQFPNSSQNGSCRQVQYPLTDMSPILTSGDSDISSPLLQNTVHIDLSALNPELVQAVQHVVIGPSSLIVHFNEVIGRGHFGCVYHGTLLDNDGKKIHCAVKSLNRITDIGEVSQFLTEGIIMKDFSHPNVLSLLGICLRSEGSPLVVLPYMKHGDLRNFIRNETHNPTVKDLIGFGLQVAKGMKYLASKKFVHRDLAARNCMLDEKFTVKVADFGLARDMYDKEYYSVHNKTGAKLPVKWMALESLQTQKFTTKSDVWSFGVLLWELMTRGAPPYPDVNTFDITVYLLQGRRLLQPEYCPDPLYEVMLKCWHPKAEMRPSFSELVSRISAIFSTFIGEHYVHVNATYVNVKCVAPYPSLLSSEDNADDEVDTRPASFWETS
# Method: as §3, §4
# T1 sequence (P08581 25-932 limits assumed): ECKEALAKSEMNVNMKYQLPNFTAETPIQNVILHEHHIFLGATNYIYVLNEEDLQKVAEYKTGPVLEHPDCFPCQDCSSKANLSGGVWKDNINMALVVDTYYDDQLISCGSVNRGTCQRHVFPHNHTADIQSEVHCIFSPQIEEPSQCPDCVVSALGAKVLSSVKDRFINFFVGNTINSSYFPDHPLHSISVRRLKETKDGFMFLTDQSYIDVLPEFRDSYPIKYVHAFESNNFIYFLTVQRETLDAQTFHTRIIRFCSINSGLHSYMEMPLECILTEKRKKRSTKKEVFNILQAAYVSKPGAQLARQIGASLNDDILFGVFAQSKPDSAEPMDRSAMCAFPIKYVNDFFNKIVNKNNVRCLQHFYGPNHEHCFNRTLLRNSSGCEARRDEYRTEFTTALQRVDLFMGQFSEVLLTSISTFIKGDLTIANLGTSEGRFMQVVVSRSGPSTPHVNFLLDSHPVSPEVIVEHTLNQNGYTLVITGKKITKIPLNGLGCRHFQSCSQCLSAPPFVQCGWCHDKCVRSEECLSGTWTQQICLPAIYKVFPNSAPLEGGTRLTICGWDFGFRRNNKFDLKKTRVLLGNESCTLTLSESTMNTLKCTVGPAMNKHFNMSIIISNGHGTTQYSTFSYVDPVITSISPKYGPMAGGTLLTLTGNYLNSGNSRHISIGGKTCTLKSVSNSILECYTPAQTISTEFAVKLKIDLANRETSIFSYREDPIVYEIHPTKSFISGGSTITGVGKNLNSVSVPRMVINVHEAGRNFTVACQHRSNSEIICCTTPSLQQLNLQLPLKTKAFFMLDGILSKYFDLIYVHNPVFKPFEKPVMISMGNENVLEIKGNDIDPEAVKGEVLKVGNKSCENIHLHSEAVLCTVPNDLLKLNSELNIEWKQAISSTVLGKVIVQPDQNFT
# T2 sequence (P08581 25-932 limits assumed): as above
# T3 sequence (P08581 25-1390): as the sequence (P08581 25-1390) above
substance,measurement,setting,value
"ABT700-Vc-MMAE (DAR4): ADC of control antibody ABT700 conjugated to vc-MMAE (CAS No.: 646502-53-6), DAR value 4.0 [reference compound]",EC50,[1],11.6 nM
same,NCI-H716 Maximum signal value,[1],3737
same,EC50,[2],288 nM
same,EC50,[3],71.6 nM
same,TGI (%) on Day 15,[4],15.06%
same,TGI (%) on Day 14,[5]; 0.3 mg/kg,1.7%
same,TGI (%) on Day 14,[5]; 1 mg/kg,3.5%
"ABT700-Vc-MMAE (DAR9.7): ADC of control antibody ABT700 conjugated to vc-MMAE (CAS No.: 646502-53-6), DAR value 9.7 [reference compound]",EC50,[6],2.432 µg/mL
same,EC50,[7],0.917 nM
same,NCI-H358 Maximum signal value,[7],32386
same,EC50,[8],0.212 nM
same,NCI-H69 Maximum signal value,[8],8214
same,EC50,[9],0.852 nM
same,LS1034 Maximum signal value,[9],8960
same,EC50,[10],53.7 nM
same,EC50,[11],> 10000 nM
same,TGI (%) on Day 14,[12],84.6%
"ABT700: control anti-c-Met antibody with a sequence from KEGG, ID: D11307 [reference compound]",h.cMet EC50,[13],0.004148 µg/mL
same,cynoMet EC50,[14],0.1434 µg/mL
same,MKN45 EC50,[15],0.1004 µg/mL
same,Maximum signal value,[15]; MKN45,70415
same,ka,[16],169000 M⁻¹ s⁻¹
same,kdis,[16],3.91e-07 s⁻¹
same,Endocytosis rate %,[17]; 1 h,7.9%
same,Endocytosis rate %,[17]; 2 h,19.2%
same,Endocytosis rate %,[17]; 4 h,44.5%
same,MKN45 IC50,[18],0.167 µg/mL
same,Maximum inhibition rate %,[19],75%
same,EC50,[6],0.005257 µg/mL
